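Assay format: 96-well plates, 48-hour exposure. TGI is the concentration that stops growth completely.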
Assays:
Experiment in all cases: NCI tumour cell line growth inhibition, 48 h
RXF 393 renal = tested on: RXF 393 renal
UACC-62 melanoma = tested on: UACC-62 melanoma
HCC-2998 colon = tested on: HCC-2998 colon
786-0 renal = tested on: 786-0 renal
COLO 205 colon = tested on: COLO 205 colon
LOX IMVI melanoma = tested on: LOX IMVI melanoma
NCI/ADR-RES ovarian = tested on: NCI/ADR-RES ovarian
PC-3 prostate = tested on: PC-3 prostate
KM12 colon = tested on: KM12 colon
SF-295 CNS = tested on: SF-295 CNS
U251 CNS = tested on: U251 CNS
SW-620 colon = tested on: SW-620 colon

SMILES | TGI (RXF 393 renal) [µM] | TGI (UACC-62 melanoma) [µM] | TGI (HCC-2998 colon) [µM] | TGI (786-0 renal) [µM] | TGI (COLO 205 colon) [µM] | TGI (LOX IMVI melanoma) [µM] | TGI (NCI/ADR-RES ovarian) [µM] | TGI (PC-3 prostate) [µM] | TGI (KM12 colon) [µM] | TGI (SF-295 CNS) [µM] | TGI (U251 CNS) [µM] | TGI (SW-620 colon) [µM]
C=C(Cl)CN1c2ccccc2C=Cc2ccccc21 | 33 | 44.2 | 33.7 | > 100 | 30.4 | 52.4 | > 100 | > 100 | 48.9 | 35.2 | 30.9 | 
CCN(CC)C(=O)c1cc([N+](=O)[O-])c(=O)n2c1[nH]c1ccccc12 | > 100 | > 100 | > 100 | > 100 | > 100 | > 100 | > 100 | > 100 | > 100 | > 100 |  | > 100
O=C1c2cc3ncsc3cc2C(=O)c2c(O)ccc(O)c21 | > 100 | > 100 | > 100 | > 100 | > 100 | > 100 | > 100 | > 100 | > 100 | > 100 | > 100 | > 100
NC(=S)NS(=O)(=O)c1ccc(Cl)cc1 | > 100 | > 100 | > 100 | > 100 | > 100 | > 100 | > 100 | > 100 | > 100 | > 100 | > 100 | > 100
Cc1nccn1S(=O)(=O)c1ccc(Cl)cc1 | > 100 | > 100 | 88 | > 100 | 40.2 | > 100 | > 100 | > 100 | > 100 | > 100 | > 100 | > 100
CC(C)(C)OC(=O)NNCC(O)COc1ccccc1 (configuration not stated) | > 100 | > 100 | > 100 | > 100 | > 100 | > 100 | > 100 | > 100 |  | > 100 | > 100 | > 100
Cc1ccc2c(c1)Nc1ccccc1P2(=O)O | > 100 | > 100 | > 100 | > 100 | > 100 | > 100 | > 100 | > 100 | > 100 | > 100 | > 100 | > 100
Fc1ccc2c(c1)nc1n2C(c2c(F)cccc2F)SC1 (configuration not stated) | > 100 | > 100 | > 100 | > 100 | > 100 | > 100 | > 100 | > 100 | 64.4 | > 100 | > 100 | > 100
COC(=O)/C=C\C(C#N)(C#N)N=Cc1ccc(Br)cc1 | 17.8 | 16.5 | 32.1 | > 48.9 | 9.55 | 5.26 | 76 | 32.4 | 29.3 | 34.7 | 33.3 | > 22.4
CCOC(=O)CCC(NC(=O)c1ccc(Nc2nc3ccccc3nc2C(=O)OCC)s1)C(=O)OCC (configuration not stated) | > 100 | > 100 | > 100 | > 100 | > 100 | > 100 | > 100 | > 100 | > 100 |  | > 100 | > 100
COc1ccc(/C=C(/c2ccc(OC)cc2)c2c(Cl)cc(Cl)c(/C(=C\c3ccc(OC)cc3)c3ccc(OC)cc3)c2N=Nc2ccccc2)cc1 | > 100 | > 100 | > 100 | > 100 | > 100 | > 100 | > 100 | > 100 | > 100 | > 100 | > 100 | > 100
C=C1CC(O)C2C(=C)C(=O)OC2C2C(C)C(=O)CC12 (configuration not stated) | 17.4 | 29.1 | 34.4 |  | 43.5 | 80.2 | 49.7 | > 100 | 56.9 | 68.9 | 59.1 | 30.7
Cc1ccsc1/C=N/Nc1cc(C)c2ccccc2n1 | 47.8 | 26.6 | 31.7 | 31.8 | 20.9 | 25.9 | 31 | 51.4 | 46 | 37.8 | 31.4 | 48.7
Nc1ccn(CC(O)c2cc3ccccc3[nH]2)c(=O)n1 (configuration not stated) | > 100 | > 100 | > 100 | > 100 | > 100 | > 100 | > 100 | > 100 | > 100 | > 100 | > 100 | > 100
COc1ccc(/C=C2\OC(=O)C(Cl)=C2c2ccc(OC)c(Cl)c2)cc1 | 29.5 | 80 | > 100 | 35.5 | > 100 | > 100 | 52.6 | > 100 | > 100 | 67.6 | > 100 | > 100
COc1ccc(/N=N/C(=NNC(=O)c2ccc(C)cc2)c2ccc(N(C)C)cc2)cc1 | > 100 | > 83.1 | 98.4 | > 100 | > 85.8 | > 100 | > 100 | > 100 | > 100 | > 100 | > 100 | > 100
CCN(CCC#N)C(=O)Nc1ccccc1 | > 100 | > 100 | > 100 | > 100 | > 100 | > 100 | > 100 | > 100 | > 100 | > 100 | > 100 | > 100
CC1C(c2ccccc2)NC(c2ccccc2)CC1(N)C#N (configuration not stated) | > 100 | > 100 | > 100 | > 100 | > 100 | > 100 | > 100 | > 100 | > 100 | > 100 | > 100 | > 100
N#Cc1c(N2CCCC2)nsc1Nc1ccccc1 | > 100 |  | > 100 | > 100 | > 100 | > 100 | > 100 | > 100 | > 100 | > 100 |  | > 100
Cc1oc2nc(N(C)C)n3cnnc3c2c1C | > 100 | > 100 | > 100 | > 100 | > 100 |  | > 100 | > 100 | > 100 | > 100 | > 100 | > 100
CC(C)=CCC[C@@H](C)C1=C(O)C(Nc2ccccc2)=C(C)C(=O)C1=O | 60.7 | 54.5 | > 100 | > 100 | > 61.8 | > 100 | 45.6 | > 100 | > 100 | 32.4 | > 100 | > 100
Cn1c(-c2c(C3=CC(=O)N(c4ccccc4)C3=O)c3ccccc3n2C)cc2ccccc21 | > 100 | > 100 | > 100 | > 100 | > 100 | > 100 | > 100 | > 100 | > 100 | > 100 | > 100 | > 100
CCc1n[nH]c(=O)[nH]1 | > 100 | > 100 | > 100 | > 100 | > 100 | > 100 | > 100 | > 100 | > 100 | > 100 |  | 
COc1cccc(N(CN2C(=O)CCC2OC)C(C)=O)c1 (configuration not stated) | > 100 | > 100 | > 100 | > 100 | > 100 | > 100 | > 100 | > 100 | > 100 | > 100 | > 100 | > 100
O=C1Nc2ccccc2SC1=C(C(=O)c1ccccc1)C(=O)c1ccccc1 | > 100 | 51.6 | 63.8 | > 100 | > 88 | > 100 | > 100 | > 100 | > 100 | 57.5 | > 100 | > 100
O=c1[nH]c2ccc(C(F)(F)F)cc2nc1C(F)(F)F | 36.3 | > 100 | > 100 | > 100 | 39.8 | 60.8 | 70.7 | 62.7 | 57.7 | > 100 | > 100 | 
O=NNc1c[nH]c(=O)[nH]c1=O | > 100 | > 100 | > 100 | > 100 | > 100 | > 100 | > 100 | > 100 | > 100 | > 100 | > 100 | > 100
CCCCOc1ccc(S(=O)(=O)/N=C(\NO)Nc2ccc(Cl)cc2)cc1 | 30.2 | 28.8 | 28.9 | 29.2 | 35.7 | 31 | 33.1 | 29.7 | 31.7 | 30.8 | 30.8 | 40.3
CCCCCCCCCCCCCCCCCCNc1nc(=O)n(C2CC(OP(=O)(O)OCC3OC(n4cc(F)c(=O)[nH]c4=O)CC3O)C(CO)O2)cc1F (configuration not stated) | 63 | 51.1 | 52.9 | > 100 | > 100 | > 100 | > 100 | > 100 | 27.8 | 38.5 | 65.2 | > 100
